# Test results reported in patent US6420398B2, “Urea derivatives having nitrogen aromatic heterocycle” (Santen Pharmaceutical Co., Ltd., priority 1998, dated 2002).
# Counter-ions that a name gives are not always drawn.
# Tested on: TNF-α production induced by lipopolysaccharide (LPS) stimulation
# Assay: Inhibitory effects on TNF-α production induced by LPS stimulation, in vivo test in rats (method of McGeehan et al.)
# Conditions: Rattus norvegicus, 2 h; female rats; LPS from Salmonella s.c.; oral administration of 10 mg/kg test compound immediately after LPS; plasma TNF-α by ELISA two hours after LPS; read-out: TNF-α production inhibition rate (%)
# Experimental: Inhibitory effects on TNF-α production induced by lipopolysaccharide (LPS) stimulation were studied by in vivo tests according to the method of McGeehan et al. (Nature, 370, 558-561 (1994)).
# Female rats (five per group), body weight of about 200 g, about eight weeks old, were used as test animals. LPS from Salmonella was dissolved in physiological saline to prepare an LPS solution (1 mg/ml). Test compounds were dissolved or uniformly suspended in a 1% aqueous methylcellulose solution to give test compound preparation liquids.
# The above-mentioned LPS solution (0.5 ml/kg) was subcutaneously administered to the rat. Immediately after the LPS administration, the test compound preparation liquid (5 ml/kg, containing 10 mg/kg test compound) was orally administered. Two hours after the LPS administration, blood was collected from abdominal aorta and was centrifuged at 4° C. and 3000 rpm for ten minutes. TNF-α levels in the obtained plasma were measured with a rat TNF-α -specific ELISA kit. TNF-α was not observed in the plasma with respect to an LPS-nonadministered group (control).
# TNF-α production inhibition rates of the test compounds were determined by the following equation.
# Inhibition rate (%)=[(A−B)/A]×100
# A: TNF-α level in plasma of test compound-nonadministered group
# B: TNF-α level in plasma of test compound-administered group
row,SMILES,inhibition at 10 mg/kg [%]
1,"CC(=O)SCCN(CCC1CCCCC1)C(=O)NCCc1ccncc1 [Compound No. 4-2, 1-[2-(Acetylthio)ethyl]-1-(2-cyclohexylethyl)-3-[2-(4-pyridyl)ethyl]urea]",72.5
2,"CC(=O)SCCN(CCC1CCCCC1)C(=O)NCCCc1ccncc1 [Compound No. 4-3, 1-[2-(Acetylthio)ethyl]-1-(2-cyclohexylethyl)-3-[3-(4-pyridyl)propyl]urea]",80.8
3,"CC(=O)SCCN(CCc1ccccc1)C(=O)NCCCc1cccnc1 [Compound No. 4-15, 1-[2-(Acetylthio)ethyl]-1-phenethyl-3-[3-(3-pyridyl)propyl]urea]",77.3
4,"CC(=O)SCCN(CCc1ccccc1)C(=O)NCCCc1ccncc1 [Compound No. 4-16, 1-[2-(Acetylthio)ethyl]-1-phenethyl-3-[3-(4-pyridyl)propyl]urea]",77.2
5,"CC(=O)SCCN(CCCc1ccccc1)C(=O)NCCCc1ccncc1 [Compound No. 4-17, 1-[2-(Acetylthio)ethyl]-1-(3-phenylpropyl)-3-[3-(4-pyridyl)propyl]urea]",70.6
6,"CC(=O)SCCN(CCc1ccc(F)cc1)C(=O)NCCCc1ccncc1 [Compound No. 4-18, 1-[2-(Acetylthio)ethyl]-1-(4-fluorophenethyl)-3-[3-(4-pyridyl)propyl]urea]",64.2
7,"CSCCN(CCC1CCCCC1)C(=O)NCCCc1ccncc1 [Compound No. 5-1, 1-(2-Cyclohexylethyl)-1-[2-(methylthio)ethyl]-3-[3-(4-pyridyl)propyl]urea]",74.9
8,"CSCCN(CCC1CCCCC1)C(=O)NCc1ccncc1 [Compound No. 5-2, 1 (2-Cyclohexylethyl)-1-[2-(methylthio)ethyl]-3-(4-pyridylmethyl)urea]",81.2
9,"CC(=O)SCCN(CCC1CCCCC1)C(=O)NCc1ccncc1 [Compound No. 8-1, 1-[2-(Acetylthio)ethyl]-1-(2-cyclohexylethyl)-3-(4-pyridylmethyl)urea hydrochloride]",80
10,"CC(=O)SCCN(CCC1CCCC1)C(=O)NCc1ccncc1 [Compound No. 8-3, 1-[2-(Acetylthio)ethyl]-1-(2-cyclopentylethyl)-3-(4-pyridylmethyl)urea hydrochloride]",78.9
11,"CC(=O)SCCN(CCC12CC3CC(CC(C3)C1)C2)C(=O)NCc1ccncc1 [Compound No. 8-4, 1-[2-(Acetylthio)ethyl]-1-[2-(1-adamantyl)ethyl]-3-(4-pyridylmethyl)urea hydrochloride]",81
12,"CC(=O)SCCN(CCC1=CCCCC1)C(=O)NCc1ccncc1 [Compound No. 8-10, 1-[2-(Acetylthio)ethyl]-1-[2-(1-cyclohexenyl)ethyl]-3-(4-pyridylmethyl)urea hydrochloride]",69
13,"O=C(NCCCc1ccncc1)N(CCS)CCC1CCCCC1 [Compound No. 8-11, 1-(2-Cyclohexylethyl)-1-(2-mercaptoethyl)-3-[3-(4-pyridyl)propyl]urea hydrochloride]",63.6

# Tested on: not given
# Assay: not given
# Conditions: not given
row,SMILES,melting point [°C]
1,"CC(=O)SCCN(CCC1CCCCC1)C(=O)NCCCc1ccncc1 [Compound No. 4-3, 1-[2-(Acetylthio)ethyl]-1-(2-cyclohexylethyl)-3-[3-(4-pyridyl)propyl]urea]",70
